Reference: patent US4983597A, “Beta-lactams as anticholesterolemic agents” (Merck & Co., Inc., priority 1989, dated 1991)

Each compound was assayed against T1, HMG-CoA synthase (Rattus norvegicus, UniProt P17425) (assay: HMG-CoA Synthase Inhibition Assay). Settings: Table I; rat liver enzyme, 1-[14C]-acetyl-CoA incorporation.
T1 construct: The livers from male Charles River CD rats (225-350 g) were homogenized; from tissue; host or cells: rat liver (male Charles River CD rats), 100,000 x g supernatant, ammonium sulfate and DEAE-52 fraction
T1 sequence (P17425 1-520): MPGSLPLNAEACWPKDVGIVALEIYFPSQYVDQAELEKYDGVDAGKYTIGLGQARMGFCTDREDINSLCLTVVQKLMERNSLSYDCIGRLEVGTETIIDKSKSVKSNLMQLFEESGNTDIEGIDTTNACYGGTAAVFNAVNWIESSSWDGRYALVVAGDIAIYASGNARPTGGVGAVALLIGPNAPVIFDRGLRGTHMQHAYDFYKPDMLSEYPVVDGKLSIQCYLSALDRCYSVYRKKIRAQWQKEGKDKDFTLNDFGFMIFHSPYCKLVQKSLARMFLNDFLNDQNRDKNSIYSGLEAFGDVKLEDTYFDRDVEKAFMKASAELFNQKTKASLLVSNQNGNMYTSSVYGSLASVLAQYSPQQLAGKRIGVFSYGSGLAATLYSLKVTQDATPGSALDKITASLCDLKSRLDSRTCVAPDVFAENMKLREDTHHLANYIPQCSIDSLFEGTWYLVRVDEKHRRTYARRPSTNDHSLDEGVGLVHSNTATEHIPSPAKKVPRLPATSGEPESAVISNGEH
Format: biochemical
Protocol: The intrinisic HMG-CoA synthase inhibition activity of the compounds of this invention is measured by the standard in vitro protocol described below:
The livers from male Charles River CD rats (225-350 g) were homogenized in 0.25 M sucrose which was adjusted with phenylmethylsulfonylfluoride (PMSF) and N-p-tosyl-1-lysine chloromethyl ketone (TLCK) so that the final concentration of each was […], respectively. The homogenate was centrifuged at 15,000× g for 20 minutes, the supernatant filtered through a fine nylon screen to remove most of the fat layer and recentrifuged at 100,000× g for 1 hour. This supernatant was removed and 1 M potassium phosphate, dithiothreitol (DTT) and ethylene glycolbis(β-aminoethyl ether)-N,N,N',N'-tetraacetic acid (EGTA) added to give a final concentration of 0.1 M (pH 7.2), 0.5 mM and 0.1 mM, respectively. Solid ammonium sulfate was added to 50% saturation to the protein solution, it was centrifuged at 15,000× g and the supernatant discarded. This precipitated protein could be stored at -70° C. for at least one month with very little loss of activity. The ammonium sulfate precipitate was dissolved in an minimal amount of 0.06 M potassium phosphate buffer (pH 7.2) containing 0.5 mM dithiothreitol and 0.1 mM EGTA (referred to as 0.06 M phosphate buffer) and dialyzed overnight against 2 liters of the same buffer to remove the ammonium sulfate and to inactivate HMG-CoA lyase [Clinkenbeard, et al., J. Biol. Chem. 250, 3108-3116(1975)].
The dialyzed extract was added to a column of DEAE-52 (Whatman) which had been equilibrated with 0.06 M phosphate buffer (10 mg of protein in 1 ml bed volume of the resin). The DEAE-cellulose was eluted with 0.06 M phosphate buffer until the optical density at 280 nm was essentially zero. This fraction contained the β-ketoacetyl-CoA thiolase activity. The HMG-CoA synthase was eluted from the column with 0.1 M phosphate buffer (pH 7.2) containing 0.5 mM DTT and […] EGTA, and was virtually free of all thiolase activity. The protein was precipitated by the addition of ammonium sulfate to give 50% saturation. This solution was stirred for 10 minutes at 4° C. and the precipitate collected by centrifugation at 15,000 rpm for 10 minutes. The supernatant was discarded and the precipitate dissolved in a minimum of 0.06 M phosphate buffer, pH 7.2 (about 10 ml) and the enzyme stored at -80° C.
HMG-CoA Synthase Inhibition Assay
Enzyme protein (ca. 24 mg) was added to a solution containing […] Tris-HCl (pH 8.0), 11.7 μM MgCl2, 1.17 μM ethylenediaminetetraacetic acid (EDTA), 0.58 μM dithiothreitol, and the indicated concentrations of the test compound (added as a 2 mg/ml solution in dimethylsulfoxide). The incubation took place in a volume of 0.085 ml at 30° in a shaking water bath. After 5 minutes, […] of a solution containing acetoacetyl-CoA and 0.1 μCi of 1-[^14 C]-acetyl-CoA was added to give a final concentrations of 0.1 and 0.4 μM, respectively. The incubation was continued for 10 more minutes and the reaction stopped by the addition of […] of the assay mixture to 0.2 ml of 6N HCl in a glass scintillation vial. The vial was heated for 1 hour at 120° after which time 0.2 ml more of 6N HCl was again added to each vial and the heating continued for another hour. Following this, 1.0 ml of 0.9% saline was added to each vial and finally 10 ml of scintillation liquid. Radioactivity was determined in a Packard Tri-Carb liquid scintillation counter. Percent inhibition is calculated by the formula: [formula]
IC50 values were determined by plotting the log of the concentration of the test compound verses the percentage inhibition and fitting a straight line to the resulting data by using the least squares method.

SMILES | IC50 [nM]
CC[C@@H]1C(=O)N(S(=O)(=O)c2ccc(C)cc2)[C@@H]1COC(=O)c1ccoc1 (relative stereo) [Table I o] | 320
CCCCNC(=O)c1ccc(C(=O)OC[C@@H]2[C@H](CC)C(=O)N2S(=O)(=O)c2ccc(C)cc2)cc1 (relative stereo) [Table I jj] | 20
CC[C@@H]1C(=O)N(S(=O)(=O)c2ccc(C)cc2)[C@@H]1COC(=O)c1ccnnc1 (relative stereo) [Table I m] | 82
CCC[C@@H]1C(=O)N(S(=O)(=O)c2ccc(C)cc2)[C@H]1COC(=O)c1ccc(OC)cc1 (relative stereo) [Table I rr] | 35
CC[C@@H]1C(=O)N(S(=O)(=O)c2ccc(C)cc2)[C@@H]1COC(=O)c1ccco1 [Table I gg] | 11
C=CCOc1c(NC(C)=O)cc(C(=O)OC[C@@H]2[C@H](CC)C(=O)N2S(=O)(=O)c2ccc(C)cc2)cc1OC (relative stereo) [Table I mm] | 300
CC[C@@H]1C(=O)N(S(=O)(=O)c2ccc(C)cc2)[C@@H]1COC(=O)c1ccc2ccccc2n1 (relative stereo) [Table I p] | 21
CC[C@@H]1C(=O)N(S(=O)(=O)c2ccc(C)cc2)[C@@H]1COC(=O)c1cccc(N)c1 (relative stereo) [Table I v] | 45
CC[C@@H]1C(=O)N(S(=O)(=O)c2ccc(C)cc2)[C@H]1COC(=O)c1ccc(OC)cc1 (relative stereo) [Table I tt] | 170
CC[C@@H]1C(=O)N(S(=O)(=O)c2ccc(C)cc2)[C@@H]1COC(=O)c1ccccc1N (relative stereo) [Table I n] | 31
CC[C@@H]1C(=O)N(S(=O)(=O)c2ccc(C)cc2)[C@@H]1COC(=O)c1ccc(OC)nc1 (relative stereo) [Table I f] | 41
CC[C@@H]1C(=O)N(S(=O)(=O)c2ccc(C)cc2)[C@@H]1COC(=O)c1ccsc1 (relative stereo) [Table I a] | 710

Same assay, conditions: Table II; rat liver enzyme, 1-[14C]-acetyl-CoA incorporation

SMILES | IC50 [nM]
CC[C@H]1C(=O)N(S(=O)(=O)c2ccc(C)cc2)[C@H]1COC(=O)Nc1ccc(C)cc1 (relative stereo) [Table II v] | 52
CC[C@@H]1C(=O)N(S(=O)(=O)c2ccc(C)cc2)[C@@H]1COC(=O)COc1ccccc1 (relative stereo) [Table II n] | 24
CO[C@H](C(=O)OC[C@@H]1CC(=O)N1S(=O)(=O)c1ccc(C)cc1)c1ccccc1 [Table II e] | 42
CC[C@@H]1C(=O)N(S(=O)(=O)c2ccc(C)cc2)[C@@H]1COC(=O)/C=C/c1ccco1 (relative stereo) [Table II m] | 250
CCOc1ccc(CC(=O)OC[C@H]2[C@@H](CC)C(=O)N2S(=O)(=O)c2ccc(C)cc2)cc1 (relative stereo) [Table II r] | 22
CC[C@@H]1C(=O)N(S(=O)(=O)c2ccc(C)cc2)[C@@H]1COC(=O)Cc1ccccn1 (relative stereo) [Table II p] | 10
CC[C@H]1C(=O)N(S(=O)(=O)c2ccc(C)cc2)[C@H]1COC(=O)/C=C/c1cc(OC)c(OC)c(OC)c1 (relative stereo) [Table II t] | 38
CCOc1ccc(CC(=O)OC[C@@H]2[C@H](CC)C(=O)N2S(=O)(=O)c2ccc(C)cc2)cc1C (relative stereo) [Table II o] | 2.1
CC[C@@H]1C(=O)N(S(=O)(=O)c2ccc(C)cc2)[C@@H]1COC(=O)/C=C/c1ccc(OC)cc1 (relative stereo) [Table II a] | 9.5

Same assay, conditions: Table IV; rat liver enzyme, 1-[14C]-acetyl-CoA incorporation

SMILES | IC50 [nM]
Cc1ccc(S(=O)(=O)N2C(=O)[C@H](CO)[C@H]2C=Cc2ccccc2)cc1 (relative stereo) [Table IV c] | 1100
CCC[C@H]1C(=O)N(S(=O)(=O)c2ccc(C)cc2)[C@H]1C=Cc1ccccc1 (relative stereo) [Table IV b] | 2200

Same assay, conditions: Table VI; rat liver enzyme, 1-[14C]-acetyl-CoA incorporation

SMILES | IC50 [nM]
Cc1ccc(S(=O)(=O)N2C(=O)C(C)(C)C2C2OC2c2ccccc2)cc1 (centres unmarked) [Table VI d] | 110
Cc1ccc(S(=O)(=O)N2C(=O)C(C)(C)C2C=Cc2ccccc2)cc1 (centres unmarked) [Table VI c] | 680
Cc1ccc(S(=O)(=O)N2C(=O)C(C)(C)C2CCc2ccccc2)cc1 (centres unmarked) [Table VI a] | 1800
